Laboratory results published in US12691124B2, “Methods of controlling and improving brain health” (ICAHN SCHOOL OF MEDICINE AT MOUNT SINAI, priority 2019, dated 2026).

Assays:
primary cortical neurons = assay: Axion multielectrode array recording of neuronal firing; type: cell-based, mouse
Protocol: Axion Recordings. A 48-well multielectrode array plate (Axion) was coated with 0.1% PEI for 1 hour at 37 degrees and washed four times with deionized water. Plates were dried overnight at room temperature in a sterile hood. Plates were incubated with 20 ug/ml laminin for one hour at 37 degrees before cells were seeded onto the plate. Primary cortical neurons were plated 50,000 per well. Plates were equilibrated on the Axion Maestro system at 37 degrees C. for 5 minutes before each 10 minute recording session. Baseline activity was recorded at day 7 before cells were treated with either I-BET858 (1 um) or DMSO. Electrical activity was recorded every day until day 21 and then at regular intervals until activity was no longer detected.
Therefore to determine the effect of chronic BET inhibition on electrical activity, neurons were cultured on the Axion Microelectrode array system in the presence of IBET858. Primary cortical neurons first show electrical activity at day 7 which gradually increases over time, peaking around day 14 consistent with published time courses of synaptogenesis and electrical activity in vitro. […] In one experiment, IBET858 treated neurons lived until day 77, 86% longer than control neurons.
One could argue that the protective effect of IBET858 was caused by a decreased sensing of glutamate levels. […] To further explore this hypothesis, neuronal firing in response to a sub-lethal dose of glutamate (50 μM) was measured using the Axion system (FIG. 10A). At day 14, neurons treated with 50 μM glutamate increased their firing rate 127.4+/−44.4% compared to baseline. […] Therefore, it is appropriate to use glutamate as a neuronal death assay.

young mice = conditions: cited from earlier work

CC(=O)N1c2ccc(-c3ccc(CN4CCCCC4)cc3)cc2[C@H](Nc2ccccc2)CC1C (stereo in doubt) [IBET858]
day until which neurons lived, one experiment (primary cortical neurons; 1 μM): 77 days
lifetime longer than control neurons, one experiment (primary cortical neurons; 1 μM): 86%
neuronal survival (firing) after washout (primary cortical neurons; 1 uM for 1 week followed by washout at day 14): prolonged neuronal survival that is maintained even in the absence of IBET
activity patterns of long-lived treated neurons (primary cortical neurons; 1 uM from day 7): maintain normal activity patterns
day until which neurons continued to fire (primary cortical neurons; 1 μM, control ceased firing on average at day 29): 45 days
increase in firing rate compared to baseline after glutamate (primary cortical neurons; 50 μM glutamate, day 14, control 127.4+/−44.4%): 129.3+/−26.2%
neuronal gene expression in young mice (young mice; mouse, in vivo): selective suppression of neuronal gene expression
behavioural phenotype of young mice (young mice; pharmacological suppression of BET proteins in the brain of young mice): development of an autism-like syndrome
